Measured values published in DBAASP.
≈ marks a conversion by molar mass, not a printed value.

Key:
Assay in all cases: ≥ marks a high value that may be exact or a test limit, other limits are often not marked, values filed in µg/mL are converted to µM
[1] = system: Candida albicans KCTC 7270
[2] = system: Escherichia coli CCARM 1229
[3] = system: Escherichia coli CCARM 1238
[4] = system: Pseudomonas aeruginosa 4007
[5] = system: Pseudomonas aeruginosa 4891
[6] = system: Staphylococcus aureus CCARM 3090
[7] = system: Staphylococcus aureus CCARM 3518
[8] = system: Trichosporon beigelii KCTC 7707
[9] = system: Bacillus subtilis KCTC 3068
[10] = system: Enterococcus faecalis ATCC 51575
[11] = system: Enterococcus faecalis KCCM 29212
[12] = system: Enterococcus faecium ATCC 51559
[13] = system: Enterococcus faecium KCCM 12118
[14] = system: Escherichia coli KCTC 1682
[15] = system: Pseudomonas aeruginosa KCTC 1637
[16] = system: Salmonella typhimurium KCTC 1926
[17] = system: Staphylococcus aureus KCCM 40510
[18] = system: Staphylococcus aureus KCTC 1621
[19] = system: Staphylococcus epidermidis KCTC 1917
[20] = system: Candida albicans ATCC 2048
[21] = system: Candida glabrata ATCC 90525
Candida krusei ATCC 6258 = system: Candida krusei ATCC 6258
[22] = system: Candida parapsilosis ATCC 20224
[23] = system: Candida tropicalis ATCC 20240
[24] = system: Aeromonas hydrophila TISTR 1321
[25] = system: Bacillus cereus TISTR 1449
[26] = system: Bacillus megaterium TISTR 067
[27] = system: Bacillus subtilis TISTR 1248
[28] = system: Candida albicans TISTR 5554
[29] = system: Edwardsiella tarda DMST 38217
[30] = system: Enterococcus faecalis TISTR 927
[31] = system: Escherichia coli ATCC 25922
[32] = system: Escherichia coli DH5alpha
[33] = system: Pseudomonas aeruginosa TISTR 1287
[34] = system: Salmonella enterica subsp. enterica serovar Derby DMST 16881
[35] = system: Salmonella typhimurium TISTR 1472
[36] = system: Staphylococcus aureus ATCC 25923
[37] = system: Staphylococcus aureus TISTR 746
Bacillus megaterium Bm11 = system: Bacillus megaterium Bm11
[38] = system: Enterobacter cloacae ATCC 49141
[39] = system: Enterococcus faecalis ATCC 19433
[40] = system: Klebsiella aerogenes ATCC 35029
[41] = system: Pseudomonas aeruginosa ATCC 27853
[42] = system: Staphylococcus aureus ATCC 6538P
[43] = system: Streptococcus pyogenes ATCC 49399
[44] = system: Enterobacter cloacae beta-12
Escherichia coli D31 = system: Escherichia coli D31
Escherichia coli SBS 363 = system: Escherichia coli SBS 363
[45] = system: Pseudomonas aeruginosa PA14

`CC[C@H](C)[C@H](NC(=O)[C@H](C)NC(=O)[C@H](CCC(=O)O)NC(=O)[C@H](Cc1cnc[nH]1)NC(=O)[C@@H](NC(=O)[C@H](CCCCN)NC(=O)[C@H](CCC(N)=O)NC(=O)[C@H](Cc1ccccc1)NC(=O)[C@@H](NC(=O)[C@H](CCCCN)NC(=O)[C@H](CCCCN)NC(=O)[C@H](CC(C)C)NC(=O)[C@H](C)NC(=O)[C@H](CC(N)=O)NC(=O)[C@H](CC(C)C)NC(=O)CN)C(C)C)[C@@H](C)CC)C(=O)N[C@@H](CCCCN)C(=O)N[C@@H](CCCCN)C(=O)N[C@H](C(=O)N[C@@H](CC(N)=O)C(=O)N[C@@H](CC(N)=O)C(=O)N[C@@H](Cc1cnc[nH]1)C(=O)N[C@H](C(=O)N[C@@H](CCC(N)=O)C(N)=O)C(C)C)[C@@H](C)CC` [GLNALKKVFQKIHEAIKKINNHVQ] gave an MIC [1] of no less than 32 µM, an MIC [2] of 4 µM (≈ 11.1 µg/mL) and an MIC [3] of 4 µM (≈ 11.1 µg/mL). It also gave an MIC [4] of 2 µM (≈ 5.54 µg/mL), an MIC [5] of 4 µM (≈ 11.1 µg/mL) and an MIC [6] of 8 µM (≈ 22.2 µg/mL). The MIC [7] was 4 µM (≈ 11.1 µg/mL) and the MIC [8] was no less than 32 µM.

`CC[C@H](C)[C@H](NC(=O)[C@H](CC(C)C)NC(=O)[C@H](CC(C)C)NC(=O)[C@@H](N)CC(C)C)C(=O)N[C@@H](C)C(=O)N[C@@H](CC(C)C)C(=O)N[C@@H](CCCN=C(N)N)C(=O)N[C@@H](CCCCN)C(=O)N[C@@H](CCCCN)C(N)=O` [LLLIALRKK] gave an MIC [9] of 3.75 µM (≈ 4 µg/mL), an MIC [10] of 7.49 µM (≈ 7.99 µg/mL) and an MIC [11] of 3.75 µM (≈ 4 µg/mL). It also gave an MIC [12] of 1.87 µM (≈ 2 µg/mL), an MIC [13] of 3.75 µM (≈ 4 µg/mL) and an MIC [14] of 3.75 µM (≈ 4 µg/mL). For the same compound, the MIC [15] was 3.75 µM (≈ 4 µg/mL), the MIC [16] was 1.87 µM (≈ 2 µg/mL) and the MIC [17] was 3.75 µM (≈ 4 µg/mL). For the same compound, the MIC [18] was 3.75 µM (≈ 4 µg/mL) and the MIC [19] was 1.87 µM (≈ 2 µg/mL).

`CC(C)C[C@H](NC(=O)[C@H](C)NC(=O)[C@H](CC(C)C)NC(=O)[C@H](CC(=O)O)NC(=O)[C@H](CCC(N)=O)NC(=O)[C@@H](N)CC(C)C)C(=O)N[C@@H](CCC(N)=O)C(=O)NCC(=O)N[C@@H](C)C(=O)N[C@@H](CCCCN)C(=O)N[C@@H](CCC(=O)O)C(=O)N[C@@H](CCCN=C(N)N)C(=O)N[C@@H](C)C(=O)N[C@@H](Cc1cnc[nH]1)C(=O)N[C@@H](CCC(N)=O)C(=O)N[C@@H](CCC(N)=O)C(=O)O` [LQDLALQGAKERAHQQ] was tested, and the MIC [20] was no less than 380 µM, the MIC [21] was no less than 280 µM and the MIC (Candida krusei ATCC 6258) was no less than 380 µM. The MIC [22] was no less than 320 µM and the MIC [23] was no less than 410 µM.

`CC(C)C[C@H](NC(=O)[C@H](CCCCN)NC(=O)[C@@H](NC(=O)[C@H](CO)NC(=O)[C@H](Cc1ccccc1)NC(=O)[C@H](CC(C)C)NC(=O)[C@H](Cc1c[nH]c2ccccc12)NC(=O)[C@@H](NC(=O)[C@H](CS)NC(=O)[C@H](CC(N)=O)NC(=O)[C@@H](N)CCCN=C(N)N)[C@@H](C)O)[C@@H](C)O)C(=O)N[C@@H](CCCCN)C(=O)N[C@@H](CC(C)C)C(=O)N1CCC[C@H]1C(=O)N[C@@H](C)C(=O)O` [RNCTWLFSTKLKLPA] gave an MIC [24] of no less than 225 µM, an MIC [25] of no less than 225 µM and an MIC [26] of 7.03 µM (≈ 12.5 µg/mL). For the same compound, the MIC [27] was 14.1 µM (≈ 25 µg/mL), the MIC [28] was no less than 225 µM and the MIC [29] was no less than 225 µM. For the same compound, the MIC [30] was no less than 56.2 µM, the MIC [31] was 112 µM (≈ 200 µg/mL) and the MIC [32] was no less than 112 µM. For the same compound, the MIC [33] was no less than 225 µM, the MIC [34] was no less than 225 µM and the MIC [35] was no less than 225 µM. The MIC [36] was 225 µM (≈ 400 µg/mL) and the MIC [37] was no less than 225 µM.

With `CC[C@H](C)[C@H](NC(=O)[C@H](Cc1c[nH]c2ccccc12)NC(=O)[C@H](Cc1ccccc1)NC(=O)[C@@H]1CCCN1C(=O)[C@H](CCCN=C(N)N)NC(=O)[C@@H](N)CCCN=C(N)N)C(=O)N[C@H](C(=O)N[C@@H](CCCN=C(N)N)C(=O)N[C@@H](CCCN=C(N)N)C(N)=O)[C@@H](C)CC` [RRPFWIIRR] the MIC (Bacillus megaterium Bm11) was 1.25 µM (≈ 1.62 µg/mL), the MIC [38] was no less than 80 µM and the MIC [39] was no less than 80 µM. For the same compound, the MIC [31] was 80 µM (≈ 104 µg/mL), the MIC [40] was no less than 80 µM and the MIC [41] was greater than 80 µM. It also gave an MIC [42] of no less than 80 µM and an MIC [43] of 10 µM (≈ 13 µg/mL).

With `CC[C@H](C)[C@H](NC(=O)[C@H](CC(=O)O)NC(=O)[C@H](CC(=O)O)NC(=O)[C@H](CC(N)=O)NC(=O)CNC(=O)[C@H](CO)NC(=O)[C@H](Cc1ccccc1)NC(=O)[C@H](CC(=O)O)NC(=O)[C@@H](NC(=O)CNC(=O)[C@@H](N)C(C)C)[C@@H](C)O)C(=O)N[C@@H](CO)C(=O)N[C@@H](CC(=O)O)C(=O)N[C@H](C(=O)N[C@@H](CCC(N)=O)C(=O)N[C@@H](CCCCN)C(=O)O)C(C)C` [VGTDFSGNDDISDVQK] the MIC [44] was 2.3 µM (≈ 3.9 µg/mL), the MIC (Escherichia coli D31) was 4.6 µM (≈ 7.81 µg/mL) and the MIC (Escherichia coli SBS 363) was 4.6 µM (≈ 7.81 µg/mL). For the same compound, the MIC [41] was 1.15 µM (≈ 1.95 µg/mL) and the MIC [45] was 4.6 µM (≈ 7.81 µg/mL).
